Reference: the supplement of paper PMC11997997

Key:
[1] = test system: murine bone marrow-derived macrophages; assay: area under cytotoxicity dose-response curve (AUC (% cytotoxicity x dose, relative)); higher = more cytotoxic; settings: duration: 6 days; dose range: 0.13-80 uM, 8 points
Outline: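 Primary murine bone marrow-derived macrophages in opaque 384-well plates were exposed to an 8-point, 2.5-fold dilution series (final 80–0.13 μM) for 6 days at 37 °C in 5% CO2. Viability was read with Promega's CellTiter-Glo luminescence assay, and percent cytotoxicity was normalised to vehicle and positive control wells. Cytotoxicity is reported as the area under the dose–response curve, calculated in GraphPad Prism version 10.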

[2] = test system: Mycobacterium tuberculosis CDC1551 (intracellular, in murine BMDM); assay: area under intracellular growth-inhibition dose-response curve (AUC (% inhibition x dose, relative)); higher = more potent; settings: duration: 6 days; dose range: 0.13-80 uM, 8 points
Outline: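 Macrophages derived from primary murine bone marrow were infected for 1 h at multiplicity of infection 1 with luciferase-expressing M. tuberculosis CDC1551, then treated for 6 days at final concentrations of 80–0.13 μM. Bright-Glo luciferin signal, normalised to a reference drug control and the lowest-concentration wells, gave the growth readout. Area under the growth-inhibition dose–response curve was then calculated in GraphPad Prism.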

Row | SMILES | area under cytotoxicity dose-response curve [1] | area under intracellular growth-inhibition dose-response curve [2]
1 | C[C@H]1COc2c(N3CCN(C)CC3)c(F)cc3c(=O)c(C(=O)O)cn1c23 | 137 | 200
2 | O=C(CSc1cccc[n+]1[O-])CSc1cccc[n+]1[O-] | 9.55 | 29.1
3 | CC1CCCC(C)N1C(=O)COC(=O)c1cccnc1Cl (stereo unspecified) | 9.13 | 33.7
4 | COCCCNCC(=O)Nc1sc(C)c(C)c1C(=O)OC.O=C(O)C(=O)O | 48.9 | 76.8
5 | O=C(CSc1cccc[n+]1[O-])c1cc(Cl)ccc1Cl | 47.3 | 127
6 | CCCC(C)NC(=O)c1ccc(F)cc1 (stereo unspecified) | 4.45 | 248
7 | O=C(COc1ccc(Cl)cc1)NNC(=O)c1ccncc1 | 9.09 | 274
8 | O=C(NC1CCCCCC1)c1ccco1 | 47.2 | 214
9 | CCc1ccc(NC(=O)NC2CCCCCCC2)cc1 | 85.4 | 120
10 | CCOC(=O)/C=C/C(=O)Nc1ccc(-c2nnc3n2CCCCC3)cc1 | 34.8 | 131
11 | CN(C)[C@@H]1C(=O)C(C(N)=O)=C(O)[C@@]2(O)C(O)=C3C(=O)c4c(O)cccc4[C@@](C)(O)C3C[C@@H]12.Cl (stereo partly specified) | 65.9 | 232
12 | CCOc1ccc(NC(=O)CCc2nnc3ccc(N4CCC(C)CC4)nn23)cc1 | 65.6 | 30.4
13 | Cc1ccc(/C=C2\SC(N3CCCC3)=NC2=O)cc1 | 22.9 | 220
14 | N#CCc1ccc(NC(=O)/C=C/c2ccc([N+](=O)[O-])o2)cc1 | 124 | 35
15 | CCOc1ccc2ccccc2c1/C=N/NC(=O)c1ccncc1 | < 0 | 270
16 | O=C(NCc1ccc(F)cc1)c1cc2ccccc2o1 | 48.5 | 254
17 | O=C(Nc1ccc(S(=O)(=O)NC2=NCCCCC2)cc1)c1cccs1 | 3.27 | 43.4
18 | CC(=O)N1CCN(c2cc3c(cc2F)c(=O)c(C(=O)O)cn3C2CC2)CC1 | 6.41 | 228
19 | O=C(N/N=C/c1cccc2nccnc12)c1ccncc1 | 36.1 | 271
20 | CCOc1ccccc1NC(=O)c1ccc2[nH]c(C)c(C)c2c1 | 6.53 | 192
21 | Cc1ccc(C(=O)c2oc3ccc(Cl)cc3c2NC(=O)CN2CCN(C)CC2)cc1 | 69.1 | 131

Row | SMILES | area under cytotoxicity dose-response curve [1] | area under intracellular growth-inhibition dose-response curve [2]
22 | CC(NC(=O)c1cccc(F)c1)C1CC2CCC1C2 (stereo unspecified) | < 0 | 273
23 | O=C(CCN1C(=O)S/C(=C/c2ccccc2)C1=O)Nc1ccc(C(=O)O)c(O)c1 | 156 | 117
24 | CCC(NC(=O)Nc1nnc(C(F)(F)F)s1)(C(F)(F)F)C(F)(F)F | 14.5 | 143
25 | C/C(=N\NC(N)=S)c1ccc(Cl)s1 | < 0 | 263
26 | NC(=S)N/N=C/c1ccc(-c2ccc(Cl)c(Cl)c2)o1 | 107 | 219
27 | CC1CCN(C(=O)C2CCN(c3nnc(-n4cccc4)s3)CC2)CC1 | < 0 | 234
28 | CN(CC(=O)Nc1ccccc1Br)C(=O)c1ccccc1Sc1ccccc1C#N | 24.4 | 45.3
29 | Nc1ccc(C(=O)[O-])c(O)c1.[Na+] | 27.5 | 182
30 | O=C(NC1CCCC1)c1cc2ccccc2o1 | 56.4 | 225
31 | Cc1cc(C(=O)N/N=C/c2ccc([N+](=O)[O-])o2)c(C)o1 | 105 | 142
32 | Nc1c2c(nc3sc4c(c13)CCCCC4)CCCC2 | 14.6 | 171
33 | N#C/C(=N/Nc1ccc(OC(F)(F)F)cc1)C(N)=S | 90 | 62.6
34 | CC1CCN(C(=O)c2ccc(CNc3c(N4CCCC4)c(=O)c3=O)cc2)CC1 | 78.3 | 166
35 | CC(C)(C)C(=O)/C(=C/c1cccc([N+](=O)[O-])c1)n1cncn1 | 157 | 8.55
36 | COc1c(/C=N/NC(=O)c2ccncc2)c(CCN(C)C(C)=O)cc2c1OCO2 | 96.3 | 252
37 | CCOc1ccc(C(=O)NC(=S)Nc2ccc(N3CCC(C)CC3)cc2)cc1[N+](=O)[O-] | 81.7 | 254
38 | C/C(=N\Cc1ccc2c(c1)OCO2)C1=C(O)c2ccccc2C1=O | < 0 | 214
39 | CC1CCC(C(C)C)C(OC(=O)Cn2c(COc3ccccc3)[n+](C)c3ccccc32)C1.[Cl-] (stereo unspecified) | 39.3 | 201
40 | Cc1nnc(SCC2=C(C(=O)O)N3C(=O)C(NC(=O)Cn4nc(C(F)F)c(Cl)c4C)C3SC2)s1 (stereo unspecified) | < 0 | 193
41 | O=C(NCc1cccs1)c1ccc(Br)o1 | < 0 | 191
42 | O=C(CCN1C(=O)S/C(=C\c2ccc(F)cc2)C1=O)Nc1ccc(C(=O)O)c(O)c1 | 11.3 | 120

Row | SMILES | area under cytotoxicity dose-response curve [1] | area under intracellular growth-inhibition dose-response curve [2]
43 | O=C(NC1CCCCC1)c1ccc([N+](=O)[O-])cc1 | 15.6 | 218
44 | Cc1nn(CC(=O)NC2C(=O)N3C(C(=O)O)=C(CSc4nnnn4C)CSC23)cc1Br (stereo unspecified) | 30.6 | 236
45 | Cc1cnc(C(=O)OCC(=O)Nc2cccc3ccccc23)cn1 | < 0 | 15.8
46 | Nc1nc(F)nc2c1ncn2[C@@H]1O[C@H](CO)[C@@H](O)[C@H]1O | 236 | < 0
47 | N#CCCn1cc(/C=N/NC(=O)c2ccncc2)c(-c2ccccc2)n1 | < 0 | 247
48 | CCCCn1c(N)c(N(CCOC)C(=O)c2oc3ccc(Br)cc3c2C)c(=O)[nH]c1=O | 7.25 | 207
49 | O=C(NNC(=S)Nc1ccc(C(=O)O)c(O)c1)c1ccncc1 | 30.7 | 170
50 | Cc1cc(C(=O)NC2CCCCCCC2)ccc1[N+](=O)[O-] | < 0 | 220
51 | CCN1/C(=C/C(C)=C/c2sc3ccccc3[n+]2CC)Sc2ccccc21.[I-] | 94.9 | 138
52 | CC(NC(=O)Nc1ccc(Br)cc1)C(C)(C)C (stereo unspecified) | 55.3 | 228
53 | COc1cccc2sc(N3CCN(C(=O)c4ccc([N+](=O)[O-])o4)CC3)nc12 | 57.3 | 6.52
54 | CC1(C)C2CCC1(C)C(NC(=O)/C=C/c1ccccc1)C2 (stereo unspecified) | 58.5 | 242
55 | CCCCNC(=S)Nc1ccc2c[nH]nc2c1 | 37.5 | 190
56 | CCC(CO)N1C(C)=CC(=Cc2sc3ccccc3[n+]2Cc2ccccc2)C=C1C.[Br-] (stereo unspecified) | 54.8 | 176
57 | O=C(NNC(=O)c1ccc(-c2ccc([N+](=O)[O-])cc2)o1)c1ccncc1 | 40.4 | 264
58 | O=C(Nc1ccc(NC(=S)NC(=O)c2cccs2)cc1)c1ccccc1 | 33.4 | 244
59 | COc1ccc(OC)c2sc(N3CCN(C(=O)c4ccc([N+](=O)[O-])s4)CC3)nc12 | 14.2 | 10.8
60 | CSc1nsc(SCC(=O)N2CCCCC2)n1 | 59 | 93.5
61 | Cc1cccc(NC(=O)NC2CCCCCCC2)c1 | 95.3 | 123
62 | O=C(C=Cc1cccs1)c1ccc(Cl)s1 | 8.27 | 235
63 | Clc1ccc2nnc(Cl)n2n1 | 54 | 79.4
